What all share (format): in vivo
For experiment [1], the system named is chickweed (Stellaria media). The experiment can be described thus: Postemergence herbicidal activity, chickweed. Particulars: foliar spray, visual after 2 weeks, 0 no injury, 100 complete kill. An outline of the steps:
(§1)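 Injury rated visually at 2 weeks, 0 (none) to 100% (complete kill), relative to carrier-sprayed controls. Foliar spray applied to 7–21-day-old seedlings at first or second true leaf, with rates in ppm (1 ppm ≈ 1 g/ha) in an aqueous acetone/DMSO/crop oil/surfactant mix.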

The test system of experiment [2] is cocklebur (Xanthium strumarium). The experiment can be described thus: Postemergence herbicidal activity, cocklebur. Particulars: foliar spray, visual after 2 weeks, 0 no injury, 100 complete kill. The essentials: as §1
The subject of experiment [3] is lambsquarters (Chenopodium album). The experiment can be described thus: Postemergence herbicidal activity, lambsquarters. Particulars: foliar spray, visual after 2 weeks, 0 no injury, 100 complete kill. The essentials: as §1
For experiment [4], the system named is morningglory (Ipomoea hederacea). The experiment can be described thus: Postemergence herbicidal activity, morningglory. The conditions noted are these: foliar spray, visual after 2 weeks, 0 no injury, 100 complete kill. An outline of the steps:
as §1

Experiment [5] deals with pigweed (Amaranthus retroflexus). The experiment can be described thus: Postemergence herbicidal activity, pigweed. Particulars: foliar spray, visual after 2 weeks, 0 no injury, 100 complete kill. An outline of the steps: as §1
The subject of experiment [6] is velvetleaf (Abutilion theophrasti). The experiment can be described thus: Postemergence herbicidal activity, velvetleaf. The conditions noted are these: foliar spray, visual after 2 weeks, 0 no injury, 100 complete kill. An outline of the steps:
as §1

Another experiment concerns viola (Viola tricolor). The experiment can be described thus: Postemergence herbicidal activity, viola. The conditions noted are these: foliar spray, visual after 2 weeks, 0 no injury, 100 complete kill. The essentials:
as §1

Experiment [7] has as its system wild buckwheat (Polygonum convolvulus). The experiment can be described thus: Postemergence herbicidal activity, wild buckwheat. The conditions noted are these: foliar spray, visual after 2 weeks, 0 no injury, 100 complete kill. The essentials:
as §1

Experiment [8] deals with blackgrass (Alopecurus myosuroides). The experiment can be described thus: Postemergence herbicidal activity, blackgrass. Particulars: foliar spray, visual after 2 weeks, 0 no injury, 100 complete kill. The essentials:
as §1

Experiment [9] concerns giant foxtail (Setaria faberi). The experiment can be described thus: Postemergence herbicidal activity, giant foxtail. Particulars: foliar spray, visual after 2 weeks, 0 no injury, 100 complete kill. The essentials:
as §1

The test system of experiment [10] is Rox orange sorghum (Sorghum bicolor). The experiment can be described thus: Postemergence herbicidal activity, Rox orange sorghum. Particulars: foliar spray, visual after 2 weeks, 0 no injury, 100 complete kill. An outline of the steps:
as §1

The test system of experiment [11] is wild oats (Avena fatua). The experiment can be described thus: Postemergence herbicidal activity, wild oats. Particulars: foliar spray, visual after 2 weeks, 0 no injury, 100 complete kill. The essentials: as §1
Experiment [12] deals with cocklebur (Xanthium strumarium). The experiment can be described thus: Preemergence herbicidal activity, cocklebur. The conditions noted are these: 35 g/Ha, soil spray, visual after 3 weeks; 0 no injury, 100 complete kill or no germination. The essentials: (§2)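 Visual rating 3 weeks after treatment, 0-100% injury versus untreated pots, where 100 means complete kill or no germination. Soil of seeded pots was sprayed preemergence with aqueous Tween 155 dilutions of acetone/DMSO stocks, up to 4.48 kg/ha. Plants were grown in a greenhouse at about 23-29 °C day/22-28 °C night with ~15 h light.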

The subject of experiment [13] is lambsquarters (Chenopodium album). The experiment can be described thus: Preemergence herbicidal activity, lambsquarters. Particulars: 35 g/Ha, soil spray, visual after 3 weeks; 0 no injury, 100 complete kill or no germination. An outline of the steps: as §2
In experiment [14] the test system is morningglory (Ipomoea hederacea). The experiment can be described thus: Preemergence herbicidal activity, morningglory. Particulars: 35 g/Ha, soil spray, visual after 3 weeks; 0 no injury, 100 complete kill or no germination. An outline of the steps:
as §2

The test system of experiment [15] is pigweed (Amaranthus retroflexus). The experiment can be described thus: Preemergence herbicidal activity, pigweed. The conditions noted are these: 35 g/Ha, soil spray, visual after 3 weeks; 0 no injury, 100 complete kill or no germination. The essentials:
as §2

For experiment [16], the system named is velvetleaf (Abutilion theophrasti). The experiment can be described thus: Preemergence herbicidal activity, velvetleaf. Particulars: 35 g/Ha, soil spray, visual after 3 weeks; 0 no injury, 100 complete kill or no germination. The essentials: as §2
In experiment [17] the test system is wild poinsettia (Euphorbia heterophylla). The experiment can be described thus: Preemergence herbicidal activity, wild poinsettia. The conditions noted are these: 35 g/Ha, soil spray, visual after 3 weeks; 0 no injury, 100 complete kill or no germination. An outline of the steps: as §2
The test system of experiment [18] is blackgrass (Alopecurus myosuroides). The experiment can be described thus: Preemergence herbicidal activity, blackgrass. Particulars: 35 g/Ha, soil spray, visual after 3 weeks; 0 no injury, 100 complete kill or no germination. An outline of the steps:
as §2

Experiment [19] relates to barnyardgrass (Echinochloa crus-galli). The experiment can be described thus: Preemergence herbicidal activity, barnyardgrass. Particulars: 35 g/Ha, soil spray, visual after 3 weeks; 0 no injury, 100 complete kill or no germination. The essentials: as §2
Experiment [20] has as its system crabgrass (Digitaria sanguinalis). The experiment can be described thus: Preemergence herbicidal activity, crabgrass. Particulars: 35 g/Ha, soil spray, visual after 3 weeks; 0 no injury, 100 complete kill or no germination. An outline of the steps:
as §2

Experiment [21] deals with giant foxtail (Setaria faberi). The experiment can be described thus: Preemergence herbicidal activity, giant foxtail. The conditions noted are these: 35 g/Ha, soil spray, visual after 3 weeks; 0 no injury, 100 complete kill or no germination. The essentials:
as §2

In experiment [22] the test system is Rox orange sorghum (Sorghum bicolor). The experiment can be described thus: Preemergence herbicidal activity, Rox orange sorghum. Particulars: 35 g/Ha, soil spray, visual after 3 weeks; 0 no injury, 100 complete kill or no germination. An outline of the steps: as §2
The test system of experiment [23] is wild oats (Avena fatua). The experiment can be described thus: Preemergence herbicidal activity, wild oats. Particulars: 35 g/Ha, soil spray, visual after 3 weeks; 0 no injury, 100 complete kill or no germination. The essentials:
as §2

On to `COc1cnc(OC)n2nc(NS(=O)(=O)c3ccsc3CC(=O)O)nc12` [Compound 6, N-(5,8-dimethoxy[1,2,4]triazolo[1,5-c]pyrimidin-2-yl)-2-carboxymethylthiophene-3-sulfonamide], for which the “STEME postemergence injury score 0-100” value in experiment [1] (7.8 ppm) was determined as 80%. In experiment [2] (7.8 ppm), the “XANST postemergence injury score 0-100” value is 95%. Besides, in experiment [3] (7.8 ppm), the “CHEAL postemergence injury score 0-100” value was determined as 80%. Also, the “IPOHE postemergence injury score 0-100” value in experiment [4] (7.8 ppm) came to 85%. For the same compound, the “AMARE postemergence injury score 0-100” value in [5] (7.8 ppm) came out at 100%. The “ABUTH postemergence injury score 0-100” value in experiment [6] (7.8 ppm) amounted to 90%. The “VIOTR postemergence injury score 0-100” value in the experiment on viola (Viola tricolor) (7.8 ppm) was found to be 85%. The “POLCO postemergence injury score 0-100” value in experiment [7] (7.8 ppm) turned out to be 85%. The “ALOMY postemergence injury score 0-100” value in experiment [8] (7.8 ppm) turned out to be 80%. Moreover, the “SETFA postemergence injury score 0-100” value in [9] (7.8 ppm) was 98%. For the same compound, the “SORBI postemergence injury score 0-100” value in experiment [10] (7.8 ppm) is given as 80%. In the experiment with wild oats (Avena fatua) [11] (7.8 ppm), the “AVEFA postemergence injury score 0-100” value came to 70%. For the same compound, the “XANST preemergence injury score 0-100” value in experiment [12] turned out to be 70%. Moreover, the “CHEAL preemergence injury score 0-100” value in experiment [13] was 99%. In addition, the “IPOHE preemergence injury score 0-100” value in experiment [14] amounted to 80%. Also, the “AMARE preemergence injury score 0-100” value in experiment [15] is 100%. In addition, in experiment [16], the “ABUTH preemergence injury score 0-100” value stood at 80%. Moreover, the “EPHHL preemergence injury score 0-100” value in experiment [17] was 70%. In [18], the “ALOMY preemergence injury score 0-100” value worked out at 75%. Also, in experiment [19], the “ECHCG preemergence injury score 0-100” value is 80%. Moreover, the “DIGSA preemergence injury score 0-100” value in experiment [20] amounted to 100%. The “SETFA preemergence injury score 0-100” value in experiment [21] came to 100%. The “SORBI preemergence injury score 0-100” value in [22] is 100%. For the same compound, the “AVEFA preemergence injury score 0-100” value in the experiment on wild oats (Avena fatua) [23] was determined as 80%.

Consider `COc1cscc1S(=O)(=O)Nc1nc2c(Cl)cnc(OC)n2n1` [Compound 14], for which the “STEME postemergence injury score 0-100” value in experiment [1] (31.3 ppm) stood at 100%. The “XANST postemergence injury score 0-100” value in experiment [2] (31.3 ppm) is on record as 95%. For the same compound, the “CHEAL postemergence injury score 0-100” value in experiment [3] (31.3 ppm) stood at 100%. Further, the “IPOHE postemergence injury score 0-100” value in [4] (31.3 ppm) is on record as 80%. Also, the “AMARE postemergence injury score 0-100” value in experiment [5] (31.3 ppm) is recorded as 95%. Moreover, the “ABUTH postemergence injury score 0-100” value in experiment [6] (31.3 ppm) was found to be 90%. Besides, the “VIOTR postemergence injury score 0-100” value in the experiment on viola (Viola tricolor) (31.3 ppm) stood at 75%. Further, the “POLCO postemergence injury score 0-100” value in experiment [7] (31.3 ppm) was 95%. The “ALOMY postemergence injury score 0-100” value in experiment [8] (31.3 ppm) came out at 80%. In addition, the “SETFA postemergence injury score 0-100” value in experiment [9] (31.3 ppm) came to 95%. The “SORBI postemergence injury score 0-100” value in [10] (31.3 ppm) was 95%. The “AVEFA postemergence injury score 0-100” value in the experiment on wild oats (Avena fatua) [11] (31.3 ppm) came out at 80%. The “XANST preemergence injury score 0-100” value in experiment [12] is listed as 60%. Further, the “CHEAL preemergence injury score 0-100” value in experiment [13] was 98%. Further, the “IPOHE preemergence injury score 0-100” value in experiment [14] was determined as 60%. For the same compound, the “AMARE preemergence injury score 0-100” value in experiment [15] turned out to be 80%. For the same compound, the “ABUTH preemergence injury score 0-100” value in [16] is recorded as 80%. In experiment [17], the “EPHHL preemergence injury score 0-100” value is 30%. In [18], the “ALOMY preemergence injury score 0-100” value is 100%. In addition, the “ECHCG preemergence injury score 0-100” value in experiment [19] worked out at 98%. Moreover, in experiment [20], the “DIGSA preemergence injury score 0-100” value is 100%. Also, in [21], the “SETFA preemergence injury score 0-100” value was 100%. Moreover, the “SORBI preemergence injury score 0-100” value in [22] turned out to be 100%. Further, the “AVEFA preemergence injury score 0-100” value in the experiment on wild oats (Avena fatua) [23] amounted to 100%.
